Results as given in patent US12514852B2 (CINDOME PHARMA, INC., priority 2018, dated 2026).

Legend:
beagle dogs [1] = test: Dog cardiovascular study, QTc, d4-domperidone capsules (Example 3); assay type: in vivo; settings: male dogs; for QTc Percent Change Segment 1 (0-6 hours) / QTc Percent Change Segment 2 (7-24 hours) / QTc change Segment 1 (0-6 hours) / QTc change Segment 2 (7-24 hours): vs time-matched control; for Duration of Effect (hours post dose): QTc
Procedure: Oral suspensions were administered via gavage for comparison purposes. […]
One animal/treatment was dosed each week with at least a 3-day washout period between administrations until each animal received all treatments. See, Table 5. The same 5 animals received all treatments according to a Latin square design with at least a 3-day washout between treatments. Body temperature, blood pressure, heart rate, and the electrocardiogram (ECG) were monitored continuously for at least 2 hours prior to dosing and for at least 24 hours post dose.
Three days prior to the study, the animals were continuously monitored for at least 24 hours for body temperature and cardiovascular endpoints while on the stock colony (10 days prior to the first administration). […] The first 24 hours of the data were used in the calculation of the QTc interval. Body temperature, blood pressure, heart rate (derived from blood pressure and ECG), and the ECG were monitored continuously from at least 2 hours predose until at least 24 hours post dose. Data were collected and analyzed in 1-minute intervals and are reported in 15-minute intervals. The QTc interval was calculated using a procedure based on the method described by Spence (“The heart rate corrected QT interval of conscious beagle dogs: a formula based on analysis of covariance,” Toxicol Sci, 1998; 45:247 258) and modified by Miyazaki and Tagawa (“Rate-correction technique for QT interval in long term telemetry ECG recording in beagle dogs,” Exp. Anim., 2002; 51:465 475). Blood samples (approximately 1 mL) were collected via jugular vein and 8 and 24 hours post dose to confirm exposure.
Table 6 indicates the change (% and ms) from the appropriate time-matched control for each d4-domperidone treatment.

beagle dogs [2] = test: Dog cardiovascular study, QTc, non-deuterated domperidone by gavage (Example 3); assay type: in vivo; settings: for QTc Maximum % Change / Time of QTc Maximum % Change / QTc Percent Change Segment 1 (0-6 hours) / QTc Percent Change Segment 2 (7-24 hours) / QTc change Segment 1 (0-6 hours) / QTc change Segment 2 (7-24 hours) / QTcVdW increase (Van de Water formula) / Duration of Effect (hours post dose): beagle dogs; for QTc Percent Change Segment 1 (0-6 hours) / QTc Percent Change Segment 2 (7-24 hours) / QTc change Segment 1 (0-6 hours) / QTc change Segment 2 (7-24 hours): vs time-matched control; for Duration of Effect (hours post dose): QTc
Procedure: Oral suspensions were administered via gavage for comparison purposes.
USP. The d4-domperidone formulation was Formulation A, Example 1. […] One animal/treatment was dosed each week with at least a 2-day washout period between administrations until each animal received all treatments. The same 4 animals received treatments according to a Latin square design. Systolic blood pressure, diastolic blood pressure, heart rate and Lead II electrocardiogram were continuously recorded. The measurements started 1.5 hrs prior to the dose administration and all parameters were continuously recorded 24 hrs following the end of dosing of the last animal.
The individual animal correction (QTcVdW) was calculated using Van de Water formula.

in vivo = settings: male, Beagle, dog, plasma, po, 1 mg/kg

For [2H]c1c([2H])c([2H])c2c([nH]c(=O)n2CCCN2CCC(n3c(=O)[nH]c4cc(Cl)ccc43)CC2)c1[2H] [d4-domperidone, 1-{3-[4-(5-chloro-2-oxo-2,3-dihydro-1H-1,3-benzodiazol-1-yl)piperidin-1yl]propyl}-2,3-dihydro(4,5,6,7-D4)-1H-1,3-benzodiazol-2-one], the “QTc Maximum % Change” value (beagle dogs [1]; 20 mg capsule) was 4%, the “Time of QTc Maximum % Change” value (beagle dogs [1]; 20 mg capsule) was 3.5 h and the “QTc Percent Change Segment 1 (0-6 hours)” value (beagle dogs [1]; 20 mg capsule) was “+1%”. The “QTc Percent Change Segment 2 (7-24 hours)” value (beagle dogs [1]; 20 mg capsule) was “+0%”, the “QTc change Segment 1 (0-6 hours)” value (beagle dogs [1]; 20 mg capsule) was 3 ms and the “QTc change Segment 2 (7-24 hours)” value (beagle dogs [1]; 20 mg capsule) was 1 ms. For the same compound, the “Time of QTc Maximum % Change” value (beagle dogs [1]; 110 mg capsule) was 5 h, the “QTc Percent Change Segment 1 (0-6 hours)” value (beagle dogs [1]; 110 mg capsule) was “+5%” and the “QTc Percent Change Segment 2 (7-24 hours)” value (beagle dogs [1]; 110 mg capsule) was “+1%”. The “QTc change Segment 1 (0-6 hours)” value (beagle dogs [1]; 110 mg capsule) was 12 ms, the “QTc change Segment 2 (7-24 hours)” value (beagle dogs [1]; 110 mg capsule) was 2 ms and the “QTc Maximum % Change” value (beagle dogs [1]; 110 mg capsule, statistically significant) was 10%. The “Time of QTc Maximum % Change” value (beagle dogs [1]; 385 mg capsule) was 6 h, the “QTc Percent Change Segment 1 (0-6 hours)” value (beagle dogs [1]; 385 mg capsule) was “+8%” and the “QTc Percent Change Segment 2 (7-24 hours)” value (beagle dogs [1]; 385 mg capsule) was “+6%”. The “QTc change Segment 1 (0-6 hours)” value (beagle dogs [1]; 385 mg capsule) was 17 ms, the “QTc change Segment 2 (7-24 hours)” value (beagle dogs [1]; 385 mg capsule) was 13 ms and the “QTc Maximum % Change” value (beagle dogs [1]; 385 mg capsule, statistically significant) was 13%. The “Duration of Effect (hours post dose)” value (beagle dogs [1]; 20 mg capsule) was 1.5-12 hours post dose and the “Duration of Effect (hours post dose)” value (beagle dogs [1]; 110 mg capsule) was 0.5-12 hours post dose.
In the case of O=c1[nH]c2ccccc2n1CCCN1CCC(n2c(=O)[nH]c3cc(Cl)ccc32)CC1 [domperidone, 5-chloro-1-(1-[3-(2-oxo-2,3-dihydro-1H-benzo[d]imidazol-1-yl)propyl]piperidin-4-yl)-1H-benzo[d]imidazol-2(3H)-one], the “QTc Maximum % Change” value (beagle dogs [2]; 1 mg/kg gavage) is reported as 6%, the “Time of QTc Maximum % Change” value (beagle dogs [2]; 1 mg/kg gavage) is reported as 2 h and the “QTc Percent Change Segment 1 (0-6 hours)” value (beagle dogs [2]; 1 mg/kg gavage) is reported as “+6%”. The “QTc Percent Change Segment 2 (7-24 hours)” value (beagle dogs [2]; 1 mg/kg gavage) was “+2%”, the “QTc change Segment 1 (0-6 hours)” value (beagle dogs [2]; 1 mg/kg gavage) was 13 ms and the “QTc change Segment 2 (7-24 hours)” value (beagle dogs [2]; 1 mg/kg gavage) was 4 ms. The “Time of QTc Maximum % Change” value (beagle dogs [2]; 5 mg/kg gavage) was 2 h, the “QTc Percent Change Segment 1 (0-6 hours)” value (beagle dogs [2]; 5 mg/kg gavage) was “+11%” and the “QTc Percent Change Segment 2 (7-24 hours)” value (beagle dogs [2]; 5 mg/kg gavage) was “+7%”. For the same compound, the “QTc change Segment 1 (0-6 hours)” value (beagle dogs [2]; 5 mg/kg gavage) was 23 ms, the “QTc change Segment 2 (7-24 hours)” value (beagle dogs [2]; 5 mg/kg gavage) was 15 ms and the “QTc Maximum % Change” value (beagle dogs [2]; 5 mg/kg gavage, statistically significant) was 11%. The “QTcVdW increase (Van de Water formula)” value (beagle dogs [2]; 5 mg/kg) was “up to 23 msec”, the “Time of QTc Maximum % Change” value (beagle dogs [2]; 20 mg/kg gavage) was 2 h and the “QTc Percent Change Segment 1 (0-6 hours)” value (beagle dogs [2]; 20 mg/kg gavage) was “+10%”. For the same compound, the “QTc Percent Change Segment 2 (7-24 hours)” value (beagle dogs [2]; 20 mg/kg gavage) was “+7%”, the “QTc change Segment 1 (0-6 hours)” value (beagle dogs [2]; 20 mg/kg gavage) was 21 ms and the “QTc change Segment 2 (7-24 hours)” value (beagle dogs [2]; 20 mg/kg gavage) was 16 ms. The “QTc Maximum % Change” value (beagle dogs [2]; 20 mg/kg gavage, statistically significant) was 10%, the “QTcVdW increase (Van de Water formula)” value (beagle dogs [2]; 20 mg/kg) was no more than 21 ms and the “effect on QTc change, lower doses of non-deuterated formulation compared to higher doses of deuterated formulation” value (beagle dogs [2]; FIGS. 9 and 10, beagle dogs, in words) was “greater effect on QTc change”. The “Duration of Effect (hours post dose)” value (beagle dogs [2]; 1 mg/kg gavage) was 1-2 hours post dose, the “Duration of Effect (hours post dose)” value (beagle dogs [2]; 5 mg/kg gavage) was 0.5-6 hours post dose and the “Duration of Effect (hours post dose)” value (beagle dogs [2]; 20 mg/kg gavage) was 0.5-4 hours post dose. It also gave an MRT last (in vivo) of 5 h.
